{"source": "patent US20250276999A1", "about": "“PEPTIDES FOR PROMOTING HAIR FOLLICLE NEOGENESIS, AND PREVENTION/MITIGATION OF UNTOWARD EFFECTS OF RADIATION TREATMENT” (Trustees of Tufts College, priority 2022, published 2025)", "key": {"[1]": {"tested_on": "X-ray irradiated mice", "assay": "Radiation dermatitis murine model (thoracic X-ray irradiation)", "type": "in vivo, C57BL/6 mice", "experimental": "Animals were irradiated in the RS2000 small animal irradiator. The RS2000 provides a cone-shaped radiation field with irradiation at 12.39-40.50 cm from the X-ray source. For dose measurements, irradiation was performed with the following settings: 160 kVp, 25 mA, 90 s irradiation time and 0.3 mm Cu beam filtration. The approximate HVL provided by the manufacturer was 0.62 mm Cu. […] A custom lead shield was placed on the floor of the irradiator, with the mouse thoracic region ˜43.75 cm from the X-ray source. Dose measurements were conducted twice to account for set-up error and reproducibility. […] The dose rate was reported for each aperture position 1-4 as an absorbed dose rate to water (ADRW, Gy/min) and the two repeated measurements were averaged.\nMice (12-14 weeks of age) were anesthetized using inhaled anesthesia (isoflurane), and the fur was clipped on the dorsal side of the thoracic region. […] Animals were then anesthetized with injected anesthesia (150 mg/kg ketamine/18 mg/kg xylazine) and placed in Lucite jigs for exposure to 16.5 Gy thoracic irradiation in the RS2000 X-ray irradiator as previously described [19].\nAnimals were monitored daily for 85 days post-irradiation for both radiation dermatitis and combined injury models. Radiation dermatitis was separately scored for hair loss, erythema, scale, and ulceration. Scoring for erythema, scale and ulceration were previously described: 0=none; 1=minimal; 2=mild; 3=moderate; 4=marked [19]. Because all animals underwent fur clipping prior to irradiation and wounding, scoring for hair loss was determined as failure to regrow hair in the irradiated areas: 0=none; 1=minimal; 2=mild; 3=moderate; 4=marked. Animals were photographed for the measurement of wounds and for dermatitis scoring. […] Weight was measured as an indication of overall health."}, "[2]": {"tested_on": "X-ray irradiated and wounded mice", "assay": "Combined injury murine model (thoracic X-ray irradiation plus wound)", "type": "in vivo, C57BL/6 mice", "source_text": "The C57BL/6 strain of mice has been utilized extensively for the study of radiation-induced skin injuries. We determined that 16 Gy is the minimal dosage for the induction of radiation burns in C57BL/6 mice that are not repaired within 45 days. Sham irradiated mice without wounds were used as controls for radiation dermatitis, and treated identically as irradiated mice. Wounded mice, without radiation, were used as controls for combined injury.\nAnimals were irradiated in the RS2000 small animal irradiator. The RS2000 provides a cone-shaped radiation field with irradiation at 12.39-40.50 cm from the X-ray source. For dose measurements, irradiation was performed with the following settings: 160 kVp, 25 mA, 90 s irradiation time and 0.3 mm Cu beam filtration. The approximate HVL provided by the manufacturer was 0.62 mm Cu. The University of Wisconsin Medical Radiation Research Center (UW MRRC) provided eight acrylic mouse phantoms with three (1×1×1 mm) Harshaw thermoluminenscence dosimeter (TLD)-100 microcubes (ThermoElectron Corp., Oakwood Village, OH) embedded in each phantom. The cylindrical phantom had dimensions of 27 mm in diameter (D)×65 mm in length (L) and was stabilized by a cylindrical insert 15 mm (D)×27 mm (L) with a 3 mm thick stand. A custom lead shield was placed on the floor of the irradiator, with the mouse thoracic region ˜43.75 cm from the X-ray source. Dose measurements were conducted twice to account for set-up error and reproducibility. TLDs were processed at UW MRRC using a national standard with an expanded uncertainty (k=2) of 5%. The dose rate was reported for each aperture position 1-4 as an absorbed dose rate to water (ADRW, Gy/min) and the two repeated measurements were averaged.\nMice (12-14 weeks of age) were anesthetized using inhaled anesthesia (isoflurane), and the fur was clipped on the dorsal side of the thoracic region. Two days after fur clipping, mice to be used for combined injury were given acetaminophen (150 mg/kg in 0.5 ml sterile saline) by gavage. Animals were then anesthetized with injected anesthesia (150 mg/kg ketamine/18 mg/kg xylazine) and placed in Lucite jigs for exposure to 16.5 Gy thoracic irradiation in the RS2000 X-ray irradiator as previously described. For combined injury, immediately following thoracic irradiation and while still under anesthesia, the area of the skin was scrubbed with betadine or chlorhexidine, followed by cleaning with an alcohol pad. A 9/16 inch diameter punch biopsy tool was used to create a 1 cm wound in the central dorsal thoracic region, roughly in the center of the field of radiation exposure. The panniculus carnosus muscle and overlying skin will be removed. The wound will be left open to air. The size of the wound approximates 15% of the total body skin surface.\nTSN6 peptide (5 μg/day in 50 μl sterile saline) or hepatocyte growth factor (HGF; 3.3 μg/day in 50 μl sterile saline) or vehicle (sterile saline, 50 μl) were injected subcutaneously on days 2, 7 and 10 post-irradiation. Injections were made caudal, adjacent to the irradiated or irradiated/wounded area.\nAnimals were monitored daily for 85 days post-irradiation for both radiation dermatitis and combined injury models. Radiation dermatitis was separately scored for hair loss, erythema, scale, and ulceration. Scoring for erythema, scale and ulceration were previously described: 0=none; 1=minimal; 2=mild; 3=moderate; 4=marked. Because all animals underwent fur clipping prior to irradiation and wounding, scoring for hair loss was determined as failure to regrow hair in the irradiated areas: 0=none; 1=minimal; 2=mild; 3=moderate; 4=marked. Animals were photographed for the measurement of wounds and for dermatitis scoring. […] Weight was measured as an indication of overall health."}, "[3]": {"conditions": "16.5 Gy, s.c. days 2, 7, 10 post-irradiation, TSN6 5 μg/day, HGF 3.3 μg/day, vs vehicle"}, "[4]": {"conditions": "skin 83 days post-irradiation, radiation alone"}, "[5]": {"conditions": "16.5 Gy plus wound, s.c. days 2, 7, 10, TSN6 5 μg/day, HGF 3.3 μg/day"}}, "note": "Entries after “also recorded” stand apart in the source; their conditions may differ."}
{"sequence": "HSPDIQLQKGLTFEPIQIK [TSN6, 19 amino acid peptide derived from multimerin-1, Coiled coil domain]", "values": [{"measurement": "combined scores of radiation skin effects", "setting": "[1]; 16.5 Gy, TSN6 5 μg/day s.c. days 2, 7, 10 (FIG. 5E)", "value": "marked reduction"}, {"measurement": "erythema score", "setting": "[1]; [3]", "value": "mitigated"}, {"measurement": "hair loss score", "setting": "[1]; [3]", "value": "mitigated"}, {"measurement": "radiation dermatitis (overall measures)", "setting": "[1]; [3]", "value": "mitigated; also recorded: Mitigation of radiation dermatitis"}, {"measurement": "scale score", "setting": "[1]; [3]", "value": "mitigated"}, {"measurement": "adipose layer in H&E histological sections", "setting": "[1]; [4]", "value": "preservation of the adipose layer"}, {"measurement": "epidermal thickening in H&E histological sections", "setting": "[1]; [4]", "value": "reduction of the epidermal thickening"}, {"measurement": "hair follicles within the irradiated area (histology)", "setting": "[1]; [4]", "value": "restoration of hair follicles"}, {"measurement": "time to wound closure in the presence of radiation", "setting": "[2]; 16.5 Gy plus 9/16 inch wound, TSN6 5 μg/day s.c. days 2, 7, 10, irradiated vehicle ~30 days, no radiation ~14 days", "value": "about 16 days post-irradiation"}, {"measurement": "combined injury (overall)", "setting": "[2]; 16.5 Gy plus wound, TSN6 5 μg/day s.c. days 2, 7, 10 (FIG. 7)", "value": "Mitigation of combined injury"}, {"measurement": "characteristics of radiation dermatitis (hair loss, scale, erythema, ulceration) including combined score", "setting": "[2]; [5]", "value": "markedly reduced"}, {"measurement": "rate of wound closure / wound repair", "setting": "[2]; [5]", "value": "increased the rate of wound closure"}, {"measurement": "radiation dermatitis in images of mice", "setting": "[2]; 57, 71 and 75/79 days post-irradiation, vs vehicle (FIG. 13)", "value": "vast improvement; also recorded: improves radiation dermatitis"}, {"measurement": "wound closure", "setting": "[2]; 79 days post-irradiation (FIG. 13C)", "value": "full wound closure"}, {"measurement": "hair regrowth", "setting": "[2]; 79 days post-irradiation, vehicle: no hair regrowth (FIG. 13)", "value": "hair regrowth; also recorded: regrows pigmented hair"}]}
